Starred links: 1 amine or outer side, 2 acyl side, 3 side chain; linkers in the order of their positions; H or OH if unused. Non-standard residues stand in square brackets, D forms with d. Residues, ends and D or L forms follow the SMILES beside them. Chg = N[C@H](C(=O)O)C1CCCCC1; Suc = O=C(CCC(=O)[*:2])[*:1]
What was measured:
Hepatitis C virus [1] = experiment: Antiviral activity against HCV in replicon assay; assay type: functional, Hepacivirus hominis; settings: read-out: ED50 (the source's name)
[2] = Inhibition of HCV NS3 protease by FRET assay; set-up: species or system Hepacivirus hominis
Hepatitis C virus [3] = experiment: Inhibition of HCV 1b NS3 protease; set-up: species or system Hepatitis C virus subtype 1b
NS3 = NS3 (Hepatitis C virus, UniProt A3EZJ3); experiment: Inhibition of HCV 1a NS3 protease; set-up: species or system Hepatitis C virus subtype 1a
NS3, sequence (A3EZJ3 whole entry): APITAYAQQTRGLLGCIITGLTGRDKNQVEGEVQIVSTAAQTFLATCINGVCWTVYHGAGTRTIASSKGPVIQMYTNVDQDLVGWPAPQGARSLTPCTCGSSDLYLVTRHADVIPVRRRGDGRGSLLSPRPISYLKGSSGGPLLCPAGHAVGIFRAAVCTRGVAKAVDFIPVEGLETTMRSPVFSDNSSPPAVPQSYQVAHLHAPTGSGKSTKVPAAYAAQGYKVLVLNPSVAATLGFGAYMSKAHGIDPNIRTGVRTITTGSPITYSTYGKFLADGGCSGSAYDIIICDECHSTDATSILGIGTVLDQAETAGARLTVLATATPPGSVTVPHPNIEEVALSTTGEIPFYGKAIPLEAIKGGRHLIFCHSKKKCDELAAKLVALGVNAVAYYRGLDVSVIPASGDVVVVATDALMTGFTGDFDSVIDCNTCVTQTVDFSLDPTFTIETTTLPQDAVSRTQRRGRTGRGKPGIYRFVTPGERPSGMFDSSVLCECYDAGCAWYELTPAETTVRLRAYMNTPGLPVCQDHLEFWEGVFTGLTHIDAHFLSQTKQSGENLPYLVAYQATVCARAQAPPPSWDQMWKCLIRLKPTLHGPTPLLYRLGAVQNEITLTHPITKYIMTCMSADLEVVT

SMILES | EC50 (Hepatitis C virus [1]) | Ki [2] | Ki (Hepatitis C virus [3]) | Ki (NS3)
COc1ccc2c(Oc3ccc([C@@H]4NC(=O)[C@@H](NC(=O)OC(C)(C)C)CCCCC/C=C\[C@@H]5C[C@@]5(C(=O)O)NC4=O)cc3)cc(-c3ccccc3)nc2c1 | > 10 µM | 0.79 µM |  | 
CC(C)(C)OC(=O)N[C@H]1CCCCC/C=C\[C@@H]2C[C@@]2(C(=O)NS(=O)(=O)C2CC2)NC(=O)[C@H](c2ccc(Oc3nc(Cl)cc4ccccc34)cc2)NC1=O | > 10 µM | 0.074 µM |  | 
C=C[C@@H]1C[C@]1(NC(=O)[C@H](NC(=O)[C@@H](NC(=O)OC(C)(C)C)C(C)C)c1ccc(Oc2cc(-c3ccccc3)nc3cc(OC)ccc23)cc1)C(=O)NS(=O)(=O)c1ccccc1 | > 10 µM | 0.4 µM |  | 
COc1ccc2c(Oc3ccc([C@@H]4NC(=O)[C@@H](NC(=O)OC(C)(C)C)CCCCC/C=C\[C@@H]5C[C@@]5(C(=O)NS(=O)(=O)c5ccccc5)NC4=O)cc3)cc(-c3ccccc3)nc2c1 | > 10 µM | 0.095 µM |  | 
CCC[C@H](NC(=O)[C@@H](NC(=O)[C@@H](NC(=O)OC(C)(C)C)C(C)(C)C)c1ccc(Oc2cc(-c3ccccc3)nc3cc(OC)ccc23)cc1)C(=O)NS(=O)(=O)c1ccccc1 | > 10 µM | 0.23 µM |  | 
C=C[C@@H]1C[C@]1(NC(=O)[C@H](NC(=O)[C@@H](NC(=O)OC(C)(C)C)C(C)(C)C)c1ccc(Oc2nc(Cl)cc3ccccc23)cc1)C(=O)NS(=O)(=O)C1CC1 |  | 1.1 µM |  | 
C=C[C@@H]1C[C@]1(NC(=O)[C@@H](NC(=O)[C@@H](NC(=O)OC(C)(C)C)C(C)(C)C)c1ccc(Oc2cccc(Cl)n2)cc1)C(=O)NS(=O)(=O)C1CC1 |  | 2.6 µM |  | 
C=C[C@@H]1C[C@]1(NC(=O)[C@@H](NC(=O)[C@@H](NC(=O)OC(C)(C)C)C(C)(C)C)c1ccc(Oc2cc(-c3ccccc3)nc3cc(OC)ccc23)cc1)C(=O)NS(=O)(=O)c1ccccc1 | > 10 µM | 0.23 µM |  | 
COc1ccc2c(Oc3ccc(C(NC(=O)[C@@H](NC(=O)OC(C)(C)C)C(C)(C)C)C(=O)N[C@@H](CC(F)F)C(=O)O)cc3)cc(-c3ccccc3)nc2c1 (stereo partly specified) |  | 2.8 µM |  | 
C=C[C@@H]1C[C@]1(NC(=O)[C@@H](NC(=O)[C@@H](NC(=O)OC(C)(C)C)C(C)(C)C)c1ccc(Oc2ccccn2)cc1)C(=O)NS(=O)(=O)C1CC1 |  | 7 µM |  | 
COc1ccc2c(Oc3ccc([C@H](NC(=O)[C@@H](NC(=O)OC(C)(C)C)C(C)(C)C)C(=O)NC4(C(=O)NS(=O)(=O)c5ccccc5)CC4)cc3)cc(-c3ccccc3)nc2c1 | > 10 µM | 1.2 µM |  | 
C=C[C@@H]1C[C@]1(NC(=O)[C@@H]1C[C@@H](Oc2cc(-c3ccccc3)nc3cc(OC)ccc23)CN1C(=O)[C@@H](NC(=O)OC(C)(C)C)C(C)C)C(=O)NS(=O)(=O)c1ccccc1 |  | 0.00076 µM |  | 
COc1ccc2c(Oc3ccc([C@H](NC(=O)[C@@H](NC(=O)OC(C)(C)C)C(C)(C)C)C(=O)N[C@@H](CC(F)F)C(=O)NS(=O)(=O)C4CC4)cc3)cc(-c3ccccc3)nc2c1 | > 10 µM | 0.78 µM |  | 
C=C[C@@H]1C[C@]1(NC(=O)[C@@H](NC(=O)[C@@H](NC(=O)OC(C)(C)C)C(C)(C)C)c1ccc(Oc2nc(-c3ccncc3)cc3ccccc23)cc1)C(=O)NS(=O)(=O)C1CC1 | > 10 µM | 0.29 µM |  | 
C=C[C@@H]1C[C@]1(NC(=O)[C@@H](NC(=O)[C@@H](NC(=O)OC(C)(C)C)C(C)(C)C)c1ccc(OC)cc1)C(=O)NS(=O)(=O)C1CC1 |  | 5.4 µM |  | 
C=C[C@@H]1C[C@]1(NC(=O)[C@H](NC(=O)[C@@H](NC(=O)OC(C)(C)C)C(C)(C)C)c1ccc(OC)cc1)C(=O)NS(=O)(=O)C1CC1 |  | 34 µM |  | 

SMILES | EC50 (Hepatitis C virus [1]) | Ki [2] | Ki (Hepatitis C virus [3]) | Ki (NS3)
CCC[C@H](NC(=O)[C@@H](NC(=O)[C@@H](NC(=O)OC(C)(C)C)C(C)C)c1ccc(O)cc1)C(=O)NS(=O)(=O)c1ccccc1 |  | 130 µM |  | 
CCC[C@H](NC(=O)[C@@H](NC(=O)[C@@H](NC(=O)OC(C)(C)C)C(C)C)c1ccc(Oc2cc(-c3ccccc3)nc3cc(OC)ccc23)cc1)C(=O)NS(=O)(=O)c1ccccc1 |  | 0.28 µM |  | 
C=C[C@@H]1C[C@]1(NC(=O)[C@@H](NC(=O)[C@@H](NC(=O)OC(C)(C)C)C(C)C)c1ccc(Oc2cc(-c3ccccc3)nc3cc(OC)ccc23)cc1)C(=O)NS(=O)(=O)c1ccccc1 | > 10 µM | 0.27 µM |  | 
C=C[C@@H]1C[C@]1(NC(=O)[C@@H](NC(=O)[C@@H](NC(=O)OC(C)(C)C)C(C)C)c1ccc(Oc2cc(-c3ccccc3)nc3cc(OC)ccc23)cc1)C(=O)NS(=O)(=O)C1CC1 |  | 0.2 µM |  | 
CC(C)(C)OC(=O)N[C@H]1CCCCC/C=C\[C@@H]2C[C@@]2(C(=O)NS(=O)(=O)C2CC2)NC(=O)[C@H](c2ccc(Oc3nc(-c4ccncc4)cc4ccccc34)cc2)NC1=O |  | 0.24 µM |  | 
C=C[C@@H]1C[C@]1(NC(=O)C(NC(=O)[C@@H](NC(=O)OC(C)(C)C)C(C)C)c1ccc(Oc2cc(-c3ccccc3)nc3cc(OC)ccc23)cc1)C(=O)O (stereo partly specified) | 8.5 µM | 2.4 µM |  | 
CC[C@@H](C)[C@H](NC(=O)[C@@H](NC(=O)CCC(=O)O)C1CCCCC1)C(=O)N[C@H](C(=O)N[C@@H](CS)C(=O)O)c1ccccc1 |  | 1 µM |  | 
C=C[C@@H]1C[C@]1(NC(=O)[C@@H](NC(=O)[C@@H](NC(=O)OC(C)(C)C)C(C)(C)C)c1ccc(Oc2cc(-c3ccccc3)nc3cc(OC)ccc23)cc1)C(=O)NS(=O)(=O)C1CC1 | > 10 µM | 0.18 µM |  | 
C=C[C@@H]1C[C@]1(NC(=O)[C@@H](NC(=O)[C@@H](NC(=O)OC(C)(C)C)C(C)(C)C)c1ccc(Oc2nc(Cl)cc3ccccc23)cc1)C(=O)NS(=O)(=O)C1CC1 | > 10 µM | 0.41 µM |  | 
CC(C)(C)OC(=O)N[C@H]1CCCCC/C=C\[C@@H]2C[C@@]2(C(=O)O)NC(=O)[C@H](c2ccc(Oc3nc(-c4ccncc4)cc4ccccc34)cc2)NC1=O |  | 1.3 µM |  | 
CCC[C@H](NC(=O)[C@@H]1C[C@@H](Oc2cc(-c3ccccc3)nc3cc(OC)ccc23)CN1C(=O)[C@@H](NC(=O)OC(C)(C)C)C(C)C)C(=O)NS(=O)(=O)c1ccccc1 |  | 0.3 µM |  | 
COc1ccc2c(Oc3ccc([C@@H]4NC(=O)[C@@H](NC(=O)OC(C)(C)C)CCCCC/C=C\[C@@H]5C[C@@]5(C(=O)NS(=O)(=O)C5CC5)NC4=O)cc3)cc(-c3ccccc3)nc2c1 | 4.6 µM | 0.076 µM |  | 
CC(C)(C)OC(=O)N[C@H]1CCCCC/C=C\[C@@H]2C[C@@]2(C(=O)O)NC(=O)[C@H](c2ccc(Oc3nc(Cl)cc4ccccc34)cc2)NC1=O |  | 1.1 µM |  | 
CC[C@H](C)[C@H](NC(=O)[C@@H](NC(=O)CCC(=O)O)C1CCCCC1)C(=O)N1CCC[C@H]1C(=O)N[C@@H](CS)C(=O)O (Suc-[Chg]IPC-OH) |  | 23 µM |  | 
COc1ccc2c(O[C@@H]3C[C@H]4C(=O)N[C@]5(C(=O)O)C[C@H]5/C=C\CCCCC[C@H](NC(=O)OC5CCCC5)C(=O)N4C3)cc(-c3csc(NC(C)C)n3)nc2c1 [CILUPREVIR] |  |  | 0.00066 µM | 0.0003 µM
